Assay results: ChEMBL document CHEMBL3393036, “Tetra-substituted pyridinylimidazoles as dual inhibitors of p38α mitogen-activated protein kinase and c-Jun N-terminal kinase 3 for potential treatment of neurodegenerative diseases” (J Med Chem, 2015)

Key:
[1] = molecular target: Mitogen-activated protein kinase 1 (Homo sapiens) (UniProt P28482); test: Inhibition of MAPK1 (ERK2) (unknown origin) at 5.5 uM by Caliper Mobility Shift Assay
[2] = molecular target: MAP kinase-activated protein kinase 2 (Homo sapiens) (UniProt P49137); test: Inhibition of MK2 (unknown origin) at 5.5 uM by Caliper Mobility Shift Assay
[3] = molecular target: Epidermal growth factor receptor (Homo sapiens) (UniProt P00533); test: Inhibition of EGFR (unknown origin) assessed as phosphorylation of ATF-2 at 5.5 uM by ELISA
[4] = molecular target: T1, Activin receptor type-1 (Homo sapiens) (UniProt Q04771); test: Inhibition of ALK2 (unknown origin) assessed as phosphorylation of ATF-2 at 5.5 uM by ELISA
T1 sequence (whole entry): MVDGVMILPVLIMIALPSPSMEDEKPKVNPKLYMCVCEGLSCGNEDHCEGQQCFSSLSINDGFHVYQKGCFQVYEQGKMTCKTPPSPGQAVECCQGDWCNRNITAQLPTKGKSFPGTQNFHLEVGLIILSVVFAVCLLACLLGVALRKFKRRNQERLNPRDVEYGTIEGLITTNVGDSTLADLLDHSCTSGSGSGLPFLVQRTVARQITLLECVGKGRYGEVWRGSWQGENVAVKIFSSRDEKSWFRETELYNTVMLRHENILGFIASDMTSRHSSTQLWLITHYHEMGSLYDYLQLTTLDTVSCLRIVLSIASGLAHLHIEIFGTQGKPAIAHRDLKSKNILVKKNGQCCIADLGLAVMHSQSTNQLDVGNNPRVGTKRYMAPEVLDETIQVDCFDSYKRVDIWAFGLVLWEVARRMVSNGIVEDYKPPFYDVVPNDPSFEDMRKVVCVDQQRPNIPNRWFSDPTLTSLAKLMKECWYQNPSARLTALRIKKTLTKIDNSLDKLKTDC

Sequence of Mitogen-activated protein kinase 1 (Homo sapiens) (P28482 whole entry): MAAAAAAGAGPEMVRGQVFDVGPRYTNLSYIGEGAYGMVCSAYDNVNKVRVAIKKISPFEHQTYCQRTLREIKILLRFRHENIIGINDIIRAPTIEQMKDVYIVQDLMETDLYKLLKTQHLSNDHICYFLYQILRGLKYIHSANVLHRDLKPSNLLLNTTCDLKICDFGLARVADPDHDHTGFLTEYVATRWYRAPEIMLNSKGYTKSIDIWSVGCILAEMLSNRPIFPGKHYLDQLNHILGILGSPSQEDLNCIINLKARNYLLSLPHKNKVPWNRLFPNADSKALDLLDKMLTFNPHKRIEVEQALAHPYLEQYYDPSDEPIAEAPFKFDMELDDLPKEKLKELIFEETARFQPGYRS
Sequence of MAP kinase-activated protein kinase 2 (Homo sapiens) (P49137 whole entry, looked up): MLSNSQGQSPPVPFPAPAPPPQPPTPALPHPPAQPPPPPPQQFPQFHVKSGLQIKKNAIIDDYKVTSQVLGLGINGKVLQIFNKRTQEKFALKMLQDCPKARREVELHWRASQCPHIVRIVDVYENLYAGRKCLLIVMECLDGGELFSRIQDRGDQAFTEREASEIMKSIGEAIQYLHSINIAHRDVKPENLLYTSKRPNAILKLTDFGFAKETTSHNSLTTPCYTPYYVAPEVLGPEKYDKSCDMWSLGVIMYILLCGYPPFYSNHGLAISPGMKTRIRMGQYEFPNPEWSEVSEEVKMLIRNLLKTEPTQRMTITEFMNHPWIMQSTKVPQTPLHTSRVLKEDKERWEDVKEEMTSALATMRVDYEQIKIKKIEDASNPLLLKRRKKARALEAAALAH
Sequence of Epidermal growth factor receptor (Homo sapiens) (P00533 whole entry): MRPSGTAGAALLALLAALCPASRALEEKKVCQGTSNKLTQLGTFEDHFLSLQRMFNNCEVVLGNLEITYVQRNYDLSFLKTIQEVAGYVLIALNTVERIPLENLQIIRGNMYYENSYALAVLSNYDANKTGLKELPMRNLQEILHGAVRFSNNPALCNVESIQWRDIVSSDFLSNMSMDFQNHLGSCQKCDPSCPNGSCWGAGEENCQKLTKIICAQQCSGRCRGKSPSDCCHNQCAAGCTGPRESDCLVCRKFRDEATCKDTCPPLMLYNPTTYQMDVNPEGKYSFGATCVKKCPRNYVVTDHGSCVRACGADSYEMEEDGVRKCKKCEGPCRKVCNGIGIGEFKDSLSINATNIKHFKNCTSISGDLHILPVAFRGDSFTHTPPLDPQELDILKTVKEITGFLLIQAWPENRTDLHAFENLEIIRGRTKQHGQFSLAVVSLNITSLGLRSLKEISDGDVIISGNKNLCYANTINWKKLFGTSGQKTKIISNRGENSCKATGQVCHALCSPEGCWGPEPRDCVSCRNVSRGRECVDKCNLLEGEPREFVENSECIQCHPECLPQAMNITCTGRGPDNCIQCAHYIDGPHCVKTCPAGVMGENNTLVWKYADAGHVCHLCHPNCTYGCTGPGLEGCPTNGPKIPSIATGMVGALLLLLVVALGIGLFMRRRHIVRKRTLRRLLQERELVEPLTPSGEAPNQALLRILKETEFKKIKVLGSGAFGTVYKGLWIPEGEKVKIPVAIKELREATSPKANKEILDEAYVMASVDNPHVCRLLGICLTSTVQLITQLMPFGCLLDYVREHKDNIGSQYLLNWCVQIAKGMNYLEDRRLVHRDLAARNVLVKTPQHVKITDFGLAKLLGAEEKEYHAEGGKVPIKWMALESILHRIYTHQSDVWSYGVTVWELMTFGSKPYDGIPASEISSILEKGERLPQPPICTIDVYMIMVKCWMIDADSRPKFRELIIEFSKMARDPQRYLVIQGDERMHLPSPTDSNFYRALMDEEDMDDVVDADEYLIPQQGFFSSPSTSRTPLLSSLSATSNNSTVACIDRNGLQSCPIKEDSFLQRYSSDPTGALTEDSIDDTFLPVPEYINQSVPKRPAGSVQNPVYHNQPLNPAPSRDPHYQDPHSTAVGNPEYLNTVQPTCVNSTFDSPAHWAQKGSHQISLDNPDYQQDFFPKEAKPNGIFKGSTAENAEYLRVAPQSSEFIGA

Row | Compound | inhibition [1] [%] | inhibition [2] [%] | inhibition [3] [%] | inhibition [4] [%]
1 | CC(=O)Nc1cc(-c2c(-c3ccc(F)cc3)nc(Sc3cccc(I)n3)n2C2CCCCC2)ccn1 | < 50 | < 50 | – | –
2 | CC(=O)Nc1cc(-c2c(-c3ccc(F)cc3)nc(S/C=C\C(=O)O)n2C2CC2)ccn1 | < 50 | < 50 | 51.8 | 60.6
3 | COC(Cn1c(SC2CCC(C(=O)O)CC2O)nc(-c2ccc(F)cc2)c1-c1ccnc(NC(C)=O)c1)OC (configuration not stated) | < 50 | < 50 | – | –
4 | CC(=O)Nc1cc(-c2c(-c3ccc(F)cc3)nc(S/C=C\C(=O)O)n2C2CCCCC2)ccn1 | < 50 | < 50 | – | –
5 | CC(=O)Nc1cc(-c2c(-c3ccc(F)cc3)nc(S/C=C\C(=O)O)n2CC2CCCO2)ccn1 (racemic) | < 50 | < 50 | – | –
